Where two headings read alike, the source gives them in different places.

We go through 13 compounds from patent publication US11390591B2, “2,4,6-trisubstituted s-triazine compound, preparation method therefor, and use thereof” (Aluda Pharmaceuticals, Inc., priority 2016, dated 2022).

Assay type in all cases: cell-based
Assay [1] concerns cell lines of human non-small cell lung cancer (H522). In words: In vitro antineoplastic activity, MTT experiment, H522. Particulars: H522 cells, 48 hours, highest concentration tested 31.6 μM (>30: inhibition rate <50%). On the procedure:
(§1) MTT, RPM1640 culture medium, fetal bovine serum, 96-well plate, CO2 thermostatic incubator, American BIO-RAD680 microplate reader, cell lines of human non-small cell lung cancer (H522), and cell lines of human brain glioma (U87) were all obtained commercially.
(§2) (1) Cell inoculation: A single cell suspension was prepared with culture media supplemented with 10% fetal bovine serum, plated into a 96-well plate with 5000 cells per well, each well having a volume of 100 μL, and cultured overnight.
(§3) (2) Preparation of compound solutions: a DMSO stock solution of a compound was diluted on a sterile bench with a culture medium into 5 concentrations to be tested, wherein a double dilution was employed between two adjacent concentrations.
(§4) (3) The compound solutions of various concentrations were added into the 96-well plate cultured overnight, with 100 μL added per well, triplicated wells for each concentration. Since the peripheral wells can have edge effect and are susceptible to contamination, no cells or compounds were added thereto; instead, 100 μL culture solution was added as a blank. Additionally, 100% wells were set to contain the cells and 100 μL culture media without any compound. The plates were incubated in a thermostatic incubator at 37° C. for 48 hours.
(§5) (4) Staining: 10 μL MTT solution (5 mg/mL, prepared with PBS) was added into the 96-well plate for staining. After incubation for 4 hours, centrifugation was performed at 2500 rpm for 10 minutes. Then, a multiple pipette was used to suck the culture solution out of the wells carefully without sucking out the cells while the pipette tip faced downward. 150 μL DMSO was added and shaken on a shaker for 5-10 minutes. Crystals were allowed to dissolve fully, and an OD value for each well was measured using the microplate reader at 570 nm. The inhibition rate was calculated as follows: Inhibition rate (%)=(average OD value of 100% wells−average OD value of compound wells)/(average OD value of 100% wells−average OD value of blank wells)×100%

In assay [2] the test system is cell lines of human brain glioma (U87). Description: In vitro antineoplastic activity, MTT experiment, U87. The protocol:
as §1, §2, §3, §4, §5

The test system of assay [3] is human colon adenocarcinoma cells (HCT15). In words: Tumor cell vacuolization, HCT15. The note with it: 100 nM, 96 hours, phase contrast microscope. The protocol:
(§6) FIG. 2. Vacuolization of tumor cells. 100 microliter culture medium (RPMI1640, 2 mmol glutamine, 10% fetal bovine serum) containing 10^3 human colon adenocarcinoma cells (HCT15) or human brain glioma cells (U87) and a solvent DMSO control or 100 nM #40 compound (L16) was plated into a 96-well cell culture plate, and cell morphological image was taken under a phase contrast microscope after cultured at 5% CO2 and 37° C. for 96 hours.

The next assay relates to human glioma U87 cells. Description: Tumor cell vacuolization (methuosis) scoring, U87. Set-up: key to Vacuolation Score: 5 scores were given when obvious vacuolization occurred at 10 nM; 4 scores at 31.6 nM; 3 scores at 100 nM; 2 scores at 316 nM; 1 score at 1000 nM; 0 score was given if no vacuolation occurred at any concentration. Particulars: 96 hours; for Vacuolation Score: U87 cells, 0.01-3.160 μM, microscope. On the procedure:
as §6
Some cells gradually became round and eventually bursted. These changes are consistent with the features of cell death by methuosis (FIG. 2).
In order to compare the ability of different compounds to cause cell vacuolization, 100 μL culture media (RPMI1640, 2 mmol glutamine, 10% fetal bovine serum) comprising 10^3 human glioma U87 cells and final concentrations of 0.01, 0.0316, 0.1, 0.316, 1.0, 3.160 μM respectively of the compounds to be tested were inoculated into a 96-well culture plate. After cultured at 5% CO2 and 37° C. for 96 hours, cell morphology was observed under a high-magnification microscope, and the ability of the compounds to cause cell vacuolization was scored. 5 scores were given when obvious vacuolization occurred at 10 nM, 4 scores at 31.6 nM, 3 scores at 100 nM, 2 scores at 316 nM, 1 score at 1000 nM, and 0 score was given if no vacuolation occurred at any concentration.

[4] abbreviates: U87 cells, MTT, 48 hours, highest concentration tested 31.6 μM, read-out: IC50(μM) U87.
The mark [5] stands for this setting: ability to inhibit cell proliferation, U87 (FIG. 3), unit inferred, read-out: IC50.

As a reminder, the IC50 is the concentration that gives 50% inhibition. Take `O=C(Nc1ccc(Cl)cc1)Nc1ccc(Nc2nc(/C=C/c3cccc([N+](=O)[O-])c3)nc(N3CCOCC3)n2)cc1` [L16, (E)-1-(4-chlorophenyl)-3-(4-(4-(morpholin-1-yl)-6-(3-nitrostyrenyl)-1,3,5-triazinyl-2-amino)phenyl)urea]: the IC50 was found to be 0.78 ± 0.04 µM in assay [1], 1.71 ± 0.06 µM in assay [2] (setting [4]) and 1.71 µM in assay [2] (setting [5]). Also, the “vacuolization of HCT15 cells” value in assay [3] is “significant vaculization”. For the same compound, the “vacuolization of U87 cells” value in the assay on human glioma U87 cells (100 nM, phase contrast microscope) is “significant vaculization”. In the assay with human glioma U87 cells, the “Vacuolation Score” value is 4 (4 scores at 31.6 nM).

`CN1CCN(c2nc(/C=C/c3cccc(Cl)c3)nc(Nc3cccc(NC(=O)Nc4ccc(Cl)cc4)c3)n2)CC1` [L26, (E)-1-(4-chlorophenyl)-3-(3-(4-(4-methylpiperazin-1-yl)-6-(3-chlorostyrenyl)-1,3,5-triazinyl-2-amino)phenyl)urea]: the IC50 in assay [1] is 5.48 ± 0.76 µM; in assay [2] (setting [4]) it was 3.95 ± 0.67 µM; in assay [2] (setting [5]) it was 3.94 µM. In the assay with human glioma U87 cells, the “Vacuolation Score” value stood at 0.

For `O=C(Nc1ccc(Cl)cc1)Nc1cccc(Nc2nc(/C=C/c3cccc([N+](=O)[O-])c3)nc(N3CCOCC3)n2)c1` [L27, (E)-1-(4-chlorophenyl)-3-(3-(4-(morpholin-1-yl)-6-(3-nitrostyrenyl)-1,3,5-triazinyl-2-amino)phenyl)urea], the half-inhibitory concentration (IC50) worked out at 2.21 ± 0.33 µM in assay [1], 3.66 ± 0.55 µM in assay [2] (setting [4]) and 3.66 µM in assay [2] (setting [5]). For the same compound, the “Vacuolation Score” value with human glioma U87 cells is 0.

For the compound `CN1CCN(c2nc(/C=C/c3cccc([N+](=O)[O-])c3)nc(Nc3cccc(NC(=O)Nc4ccc(Cl)cc4)c3)n2)CC1` [L28, (E)-1-(4-chlorophenyl)-3-(3-(4-(4-methylpiperazin-1-yl)-6-(3-nitrostyrenyl)-1,3,5-triazinyl-2-amino)phenyl)urea], the figures for the half-inhibitory concentration (IC50) in assay [1], in assay [2] (setting [4]) and in assay [2] (setting [5]) were 1.53 ± 0.22 µM, 1.49 ± 0.22 µM and 1.5 µM, respectively. Moreover, the “Vacuolation Score” value in the assay on human glioma U87 cells is 0.

Consider `CN(C)C(=O)c1ccc(NC(=O)Nc2ccc(Nc3nc(/C=C/c4ccccc4)nc(N4CCOCC4)n3)cc2)cc1` [L29, (E)-N,N-dimethyl-4-(3-(4-(4-(morpholin-1-yl)-6-styrenyl-1,3,5-triazinyl-2-amino)phenyl)urea)benzamide], for which the IC50 in assay [1] amounted to 6.51 ± 0.94 µM; in assay [2] (setting [4]), 0.53 ± 0.02 µM; in assay [2] (setting [5]), 0.75 µM. In addition, in the assay on human glioma U87 cells, the “Vacuolation Score” value stood at 3.5.

As to `CC1CCN(C(=O)c2ccc(NC(=O)Nc3ccc(Nc4nc(/C=C/c5ccccc5)nc(N5CCOCC5)n4)cc3)cc2)CC1` [L30, (E)-1-(4-((4-methylpiperidin-1-yl)formyl)phenyl)-3-(4-(4-(morpholin-1-yl)-6-styrenyl-1,3,5-triazinyl-2-amino)phenyl)urea], the results for the half-inhibitory concentration (IC50) in assay [1], in assay [2] (setting [4]) and in assay [2] (setting [5]) were 5.24 ± 1.33 µM, 0.87 ± 0.08 µM and 0.9 µM, respectively. Also, the “Vacuolation Score” value with human glioma U87 cells was determined as 0.

With `CN1CCN(C(=O)c2ccc(NC(=O)Nc3ccc(Nc4nc(/C=C/c5ccccc5)nc(N5CCOCC5)n4)cc3)cc2)CC1` [L31, (E)-1-(4-((4-methylpiperazin-1-yl)formyl)phenyl)-3-(4-(4-(morpholin-1-yl)-6-styrenyl-1,3,5-triazinyl-2-amino)phenyl)urea], the 50% inhibitory concentration (IC50) in assay [1] was found to be 1.05 ± 0.04 µM; in assay [2] (setting [4]), 0.23 ± 0.01 µM; in assay [2] (setting [5]), 0.22 µM. Also, in the assay with human glioma U87 cells, the “Vacuolation Score” value was 2.5.

As for `CN(C)CCNC(=O)c1ccc(NC(=O)Nc2ccc(Nc3nc(/C=C/c4ccccc4)nc(N4CCOCC4)n3)cc2)cc1` [L32, (E)-N-(2-(dimethylamino)ethyl)-4-(3-(4-(4-(morpholin-1-yl)-6-styrenyl-1,3,5-triazinyl-2-amino)phenyl)urea)benzamide], the IC50 in assay [1] came to 5.03 ± 0.4 µM; in assay [2] (setting [4]), 2.48 ± 0.44 µM; in assay [2] (setting [5]), 2.8 µM. Besides, the “Vacuolation Score” value in the assay on human glioma U87 cells was 4.5.

For `CCN(CC)CCNC(=O)c1ccc(NC(=O)Nc2ccc(Nc3nc(/C=C/c4ccccc4)nc(N4CCOCC4)n3)cc2)cc1` [L33, (E)-N-(2-(diethylamino)ethyl)-4-(3-(4-(4-(morpholin-1-yl)-6-styrenyl-1,3,5-triazinyl-2-amino)phenyl)urea)benzamide], the IC50 in assay [1] came out at 4.31 ± 0.09 µM; in assay [2] (setting [4]), 1.3 ± 0.05 µM; in assay [2] (setting [5]) it was 1.9 µM. Besides, the “Vacuolation Score” value in the assay on human glioma U87 cells is 3.5.

As for `CN(C)CCCNC(=O)c1ccc(NC(=O)Nc2ccc(Nc3nc(/C=C/c4ccccc4)nc(N4CCOCC4)n3)cc2)cc1` [L34, (E)-N-(3-(dimethylamino)propyl)-4-(3-(4-(4-(morpholin-1-yl)-6-styrenyl-1,3,5-triazinyl-2-amino)phenyl)urea)benzamide], the IC50 in assay [1] was determined as 4.91 ± 0.1 µM; in assay [2] (setting [4]), 2.31 ± 0.29 µM; in assay [2] (setting [5]), 3 µM. In the assay on human glioma U87 cells, the “Vacuolation Score” value was 3.5.

For the compound `O=C(Nc1ccc(Nc2nc(/C=C/c3ccccc3)nc(N3CCOCC3)n2)cc1)Nc1ccc(C(=O)NCCN2CCCC2)cc1` [L35, (E)-N-(2-(pyrrolidin-1-yl)ethyl)-4-(3-(4-(4-(morpholin-1-yl)-6-styrenyl-1,3,5-triazinyl-2-amino)phenyl)urea)benzamide], the IC50 is 4.14 ± 0.13 µM in assay [1], 1.43 ± 0.1 µM in assay [2] (setting [4]) and 2.1 µM in assay [2] (setting [5]). In the assay with human glioma U87 cells, the “Vacuolation Score” value is 1 (1 score at 1000 nM).

As for `O=C(Nc1ccc(Nc2nc(/C=C/c3ccccc3)nc(N3CCOCC3)n2)cc1)Nc1ccc(C(=O)NCCN2CCCCC2)cc1` [L36, (E)-N-(2-(piperidin-1-yl)ethyl)-4-(3-(4-(4-(morpholin-1-yl)-6-styrenyl-1,3,5-triazinyl-2-amino)phenyl)urea)benzamide], the concentration for half-maximal inhibition (IC50) came to 3.69 ± 0.44 µM in assay [1], 1.11 ± 0.06 µM in assay [2] (setting [4]) and 1.25 µM in assay [2] (setting [5]). The “Vacuolation Score” value in the assay with human glioma U87 cells is 1 (1 score at 1000 nM).

As to `O=C(Nc1ccc(Nc2nc(/C=C/c3ccccc3)nc(N3CCOCC3)n2)cc1)Nc1ccc(C(=O)NCCN2CCOCC2)cc1` [L37, (E)-N-(2-(morpholin-1-yl)ethyl)-4-(3-(4-(4-(morpholin-1-yl)-6-styrenyl-1,3,5-triazinyl-2-amino)phenyl)urea)benzamide], the results for the half-maximal inhibitory concentration (IC50) in assay [1], in assay [2] (setting [4]) and in assay [2] (setting [5]) were 5.19 ± 1.48 µM, 0.55 ± 0.05 µM and 0.82 µM, respectively. Further, the “Vacuolation Score” value in the assay with human glioma U87 cells was found to be 3.5.
